Measurements published in ChEMBL document CHEMBL1132729.
Calls of active or inactive are those of the source. The calls are words filed in the database; no cut-off is given here.

What was measured:
[1] = biological target: T1, Lipoprotein lipase (Bos taurus) (UniProt P11151); assay: Percent inhibition of compound against Lipoprotein lipase(LPL) was evaluated; No significant inhibition
T1 sequence (whole entry): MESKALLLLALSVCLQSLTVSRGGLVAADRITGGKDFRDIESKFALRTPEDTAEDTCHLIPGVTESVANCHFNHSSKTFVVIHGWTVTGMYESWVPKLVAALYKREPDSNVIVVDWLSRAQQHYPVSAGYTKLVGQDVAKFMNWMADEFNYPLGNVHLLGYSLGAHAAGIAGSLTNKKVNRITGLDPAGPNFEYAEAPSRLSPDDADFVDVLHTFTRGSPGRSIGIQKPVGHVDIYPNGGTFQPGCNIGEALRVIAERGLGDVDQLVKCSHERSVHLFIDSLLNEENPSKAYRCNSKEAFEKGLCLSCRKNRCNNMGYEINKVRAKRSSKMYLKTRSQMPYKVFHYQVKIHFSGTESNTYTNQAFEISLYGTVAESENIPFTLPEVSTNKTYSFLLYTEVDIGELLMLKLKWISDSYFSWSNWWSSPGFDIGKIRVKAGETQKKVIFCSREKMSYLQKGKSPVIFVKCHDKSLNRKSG

[2] = biological target: T1, Lipoprotein lipase (Bos taurus); assay: Percent inhibition of compound against Lipoprotein lipase(LPL) at 3h was evaluated; conditions: concentration not given here
[3] = biological target: T1, Lipoprotein lipase (Bos taurus); assay: Percent inhibition of compound against Lipoprotein lipase(LPL) at 10 uM was evaluated

Row | SMILES | inhibition [1] | inhibition [2] [%] | inhibition [3] [%]
1 | CCCCCCS(=O)(=O)ON1C(=O)CCC1=O | No inhibition |  | 
2 | CCCCCCS(=O)(=O)Oc1ccc([N+](=O)[O-])cc1 | No inhibition |  | 
3 | CCCCCCCCCCCCS(=O)(=O)F | inactive |  | 
4 | CCCCCCCCCCCCCCCCS(=O)(=O)F |  | 90 | 50
